Data on nine compounds can be found in article PMC9078697, “Discovery and preliminary SAR of 14-aryloxy-andrographolide derivatives as antibacterial agents with immunosuppressant activity” (RSC Advances, 2018).

Like-named read-outs stand apart in the source and are kept apart here. Where only a bound is given, the exact number is not on record here.

Series [1] concerns TLR4/NF-κB signaling pathway. More on the design: method as in PMID 28680097. Particulars: AD-293 reporter cells; treated for 16 h; cited from earlier work.
For series [2], the system named is IL-6/STAT3 signaling pathway. More on the design: method as in PMID 28680097. Particulars: AD-293 reporter cells; treated for 16 h; cited from earlier work.
Another series deals with E. faecalis. The experiment in a line: Bacteriostatic screening (growth, OD630) against E. faecalis. Type of series: cell-based. The note with it: for IC50: 24 h, IC50 generated when inhibition at 250 μM was higher than 80%. An outline of the steps:
(§1)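 Overnight (12 h, 37 °C) LB cultures of ATCC strains were diluted 1000-fold and exposed to graded compound concentrations at 1% final DMSO, following a modified NCCLS protocol. Ciprofloxacin was the reference; runs were in triplicate, with cell-free blanks. Growth was read as OD630.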

The test system of a further series is S. aureus. The experiment in a line: Bacteriostatic screening (growth, OD630) against S. aureus. Type of series: cell-based. Particulars: for inhibition rate (%) SA / inhibition at 250 µM: at 250 μM of the tested compound; for IC50 / inhibition at 250 µM: Staphylococcus aureus; for IC50: 24 h, IC50 generated when inhibition at 250 μM was higher than 80%; for inhibition at 250 µM: read-out: inhibition rate (%) SA. An outline of the steps: as §1

The test system of series [3] is AD-293 cells. More on the design: method as in PMID 28680097. The note with it: treated for 24 h; cited from earlier work.
Series [4] deals with TNF-α/NF-κB signaling pathway. More on the design: method as in PMID 28680097. Particulars: AD-293 reporter cells; treated for 4 h; cited from earlier work.
The subject of series [5] is IL-6/STAT3 signaling pathway. Nature of the series: IL-6/STAT3 luciferase reporter assay in AD-293 cells. Type of series: cell-based. Particulars: AD-293 reporter cells, 2.5 μg mL−1 IL-6, treated for 16 h. From the text: (§2) We utilized luciferase reporters bearing the promoter regions of TNF-α/NF-κB, TLR4/NF-κB, and IL-6/STAT3 ([ref. 25]) to examine the activities of the antibacterial active andrographolide analogs in the regulation of signaling pathways that govern inflammatory response (Table 2). […] Like their similarity in inhibitory activity against E. faecalis, E. coli and S. aureus (Table 1), 3-keto-19-alcohol compound 9b1 suppresses three signaling pathways in the same fashion as 6b17 (Table 2). […] Cells from the AD-293 cell line, a derivative of the HEK293 cell line with improved adherence and plaque formation properties, were purchased from Stratagene (La Jolla, CA, USA). The protocols were adopted and modified from our previous report.[25] All compounds were dissolved in DMSO at 10 mM as a stock solution. The final concentration of DMSO was 0.1% in the culture medium. AD-293 cells bearing luciferase reporters with promoter regions of IL-6/STAT3 and TNF-α/NF-κB in pGL4.20 vector (Promega) were maintained in DMEM high glucose medium supplemented with 10% FBS and 1% penicillin streptomycin in the presence of 1 μg mL^−1 puromycin. AD-293 cells overexpressing TLR4 and stably transfected with NF-κB reporter were maintained in DMEM high glucose medium in the presence of 1 μg mL^−1 puromycin and 10 μg mL^−1 blasticidin. All cells were maintained in a humidified incubator at 37 °C in 95% air and 5% CO2. Reporter cells were treated with 50 ng mL^−1 TNF-α to stimulate the NF-κB signaling pathway, 1 μg mL^−1 LPS to stimulate the TLR4/NF-κB signaling pathway, and 2.5 μg mL^−1 IL-6 to stimulate the IL-6/STAT3 signaling pathway. The medium was removed at the end of the treatment, cell extracts were prepared, and the luciferase activity was measured using a Luciferase assay kit (Promega) according to the manufacturer's instructions. EC50 was defined as the concentration of drug that inhibited stimulator-triggered luciferase reporter activation by 50% after continuous drug exposure for 4 (TNF-α/NF-κB) or 16 (IL-6/STAT3 and TLR4/NF-κB) hours. Each concentration was repeated 3 times independently.
(A reporter such as luciferase makes a cellular process visible.)

In the next series the test system is E. coli. The experiment in a line: Bacteriostatic screening (growth, OD630) against E. coli. The note with it: for inhibition rate (%) EC / inhibition at 250 µM: at 250 μM of the tested compound; for IC50 / inhibition at 250 µM: Escherichia coli; for IC50: 24 h, IC50 generated when inhibition at 250 μM was higher than 80%; for inhibition at 250 µM: read-out: inhibition rate (%) EC. Format: cell-based. An outline of the steps: as §1

In series [6] the test system is AD-293 cells. The experiment in a line: Cytotoxicity (MTT) in AD-293 cells. Format: cell-based. Particulars: treated for 24 h.
Series [7] deals with TLR4/NF-κB signaling pathway. Nature of the series: TLR4/NF-κB luciferase reporter assay in AD-293 cells. Format: cell-based. Particulars: AD-293 reporter cells, 1 μg mL−1 LPS, treated for 16 h.
Description: as §2

In series [8] the test system is TNF-α/NF-κB signaling pathway. Nature of the series: TNF-α/NF-κB luciferase reporter assay in AD-293 cells. Type of series: cell-based. Particulars: AD-293 reporter cells, 50 ng mL−1 TNF-α, treated for 4 h.
Description: as §2

Series [9] in a line: Cytotoxicity (MTT) in AD-293 cells. Type of series: cell-based. Particulars: human, AD-293 cells (HEK293 derivative), treated for 24 h.

On to `C=C1CCC2C(C)(CO)C(O)CCC2(C)C1CC=C1C(=O)OCC1Oc1ccc([N+](=O)[O-])cc1OC` (stereo not drawn) [6b3, (14β)-(2′-Methoxy-4′-nitro)phenoxy-andrographolide], for which the half-maximal effective concentration (EC50) – broadly, the concentration needed to bring the measured effect to its halfway point – was 3.49 ± 0.34 µM in [1], more than 10 µM in series [2] and 8.97 ± 1.03 µM in series [4]. Further, the IC50 (in general, the concentration that inhibits the measured activity by half) in the series on E. faecalis is 140 ± 11.9 µM. Moreover, in the series on S. aureus (250 µM), the “inhibition rate (%) SA” value is “(44) %”. Also, the cytotoxic concentration (CC50) (as a rule, the concentration at which the toxic effect on the cells reaches its halfway point) with AD-293 cells [3] was more than 10 µM.
On to “(14α)-(Quinolyl-8′-oxy)-3,19-acetonylidene andrographolide [5a17]”, for which the half-maximal effective concentration (EC50) in series [5] was 4.71 ± 0.17 µM; in series [7], more than 10 µM; in [8], more than 10 µM. This compound also gave an IC50 in the series on E. faecalis of 10.4 ± 2.5 µM. Also, the “inhibition rate (%) EC” value in the series on E. coli was “(44) %”. Moreover, the CC50 in the series on AD-293 cells [6] is more than 10 µM. The “inhibition rate (%) SA” value in the series on S. aureus is “(35) %”.
Consider `C=C1CCC2C3(C)COC(C)(C)OC3CCC2(C)C1CC=C1C(=O)OCC1Oc1cccc2cccnc12` (stereo not drawn) [5b17, (14β)-(Quinolyl-8′-oxy)-3,19-acetonylidene andrographolide], for which the EC50 was 6.35 ± 0.77 µM in [5], 2.85 ± 0.07 µM in series [7] and 2.45 ± 0.49 µM in series [8]. In addition, the IC50 in the series with E. faecalis was 19.3 ± 2.3 µM. Further, the “inhibition rate (%) EC” value in the series on E. coli is listed as “(47) %”. The same compound displayed a CC50 in the series with AD-293 cells [6] of more than 10 µM. For the same compound, in the series on S. aureus, the “inhibition rate (%) SA” value was “(27) %”.
For `C=C1CCC2C(C)(CO)C(O)CCC2(C)C1CC=C1C(=O)OCC1Oc1cccc2cccnc12` (stereo not drawn) [6a17, (14α)-(Quinolyl-8′-oxy)andrographolide], the EC50 is 5.62 ± 0.13 µM in [5], more than 10 µM in [7] and more than 10 µM in series [8]. This compound also came in with a concentration for half-maximal inhibition (IC50) with E. faecalis of 16.3 ± 2.1 µM. The “inhibition rate (%) EC” value in the series with E. coli is given as “(70) %”. This compound also came in with a CC50 in the series with AD-293 cells [6] of more than 10 µM. Moreover, the “inhibition rate (%) SA” value in the series with S. aureus is listed as “(66) %”.
For the compound `C=C1CC[C@H]2[C@@](C)(CCC(=O)[C@@]2(C)CO)[C@@H]1C/C=C1/C(=O)OC[C@@H]1Oc1cccc2cccnc12` [9b, (14β)-(quinolyl-8′-oxy)-3-keto andrographolide], the melting point (commonly the temperature of the solid-liquid transition) fell in the range of 141 to 143 °C. The compound further displayed an EC50 in series [5] (Homo sapiens, AD293) of 6.13 ± 0.39 µM. Also, in the series with E. faecalis (Enterococcus faecalis), the half-inhibitory concentration (IC50) was found to be 9.1 ± 2.1 µM. In the series on E. coli, this compound had a half-maximal inhibitory concentration (IC50) of 27.9 ± 1.5 µM. This compound also yielded a CC50 at 24 h in [9] of more than 10 µM. It took 5.96 ± 0.03 µM to reach a half-maximal effect in [7] (Homo sapiens, AD293) (EC50). In the series with S. aureus, this compound displayed a 50% inhibitory concentration (IC50) of 27.6 ± 1.8 µM. Moreover, in [8] (Homo sapiens, AD293), it took 2.03 ± 0.01 µM to reach a half-maximal effect (EC50).
`C=C1CC[C@@H]2[C@](C)(CO)[C@H](O)CC[C@@]2(C)[C@@H]1C/C=C1/C(=O)OC[C@@H]1Oc1cccc2cccnc12` [6b17, (14β)-(Quinolyl-8′-oxy)andrographolide] registered a melting point of 134 to 136 °C. The concentration for a half-maximal effect (EC50) in series [5] (Homo sapiens, AD293) turned out to be 2.41 ± 0.31 µM. The compound also came in with an IC50 in the series on E. faecalis (Enterococcus faecalis) of 6.3 ± 1.5 µM. In addition, the “times more active than 5b17 against E. faecalis” value in the series with E. faecalis (versus 5b17) was determined as 3 times. The concentration for half-maximal inhibition (IC50) in the series on E. coli came out at 21.6 ± 1.7 µM. In series [9], the half-maximal cytotoxic concentration (CC50) at 24 h was more than 10 µM. The compound further registered an EC50 in series [7] (Homo sapiens, AD293) of 2.65 ± 0.07 µM. 37.5 ± 2.2 µM corresponded to half-maximal inhibition in the series with S. aureus (IC50). This compound gave a concentration giving a half-maximal response (EC50) in [8] (Homo sapiens, AD293) of 2 ± 0.28 µM.
For `C=C1CC[C@@H]2[C@](C)(CO[Si](C)(C)C(C)(C)C)[C@H](O)CC[C@@]2(C)[C@@H]1C/C=C1/C(=O)OC[C@@H]1Oc1cccc2cccnc12` [7b2, (14β)-(quinolyl-8′-oxy)-19-(t-butyldimethylsilyloxy)andrographolide], the melting point lay in the range of 149 to 151 °C. The compound further yielded a concentration for half-maximal inhibition (IC50) in the series on E. faecalis (Enterococcus faecalis) of 26.2 ± 2.8 µM. In the series on E. coli, the inhibition (in general, the percentage by which the read-out fell short of the control) at 250 µM was determined as 24%. For the same compound, the inhibition at 250 µM with S. aureus amounted to 23%.
`C=C1CC[C@@H]2[C@](C)(COC(C)=O)[C@H](O)CC[C@@]2(C)[C@@H]1C/C=C1/C(=O)OC[C@@H]1Oc1cccc2cccnc12` [7b1, (14β)-(quinolyl-8′-oxy)-19-acetoxy andrographolide]: the concentration giving a half-maximal response (EC50) in series [5] (Homo sapiens, AD293) was more than 10 µM; in series [7] (Homo sapiens, AD293), more than 10 µM; in [8] (Homo sapiens, AD293), 4.91 ± 0.02 µM. In addition, the IC50 with E. faecalis (Enterococcus faecalis) was found to be 8.6 ± 0.7 µM. The inhibition at 250 µM in the series on E. coli turned out to be 60%; with S. aureus, 58%. Besides, in series [9], the cytotoxic concentration (CC50) at 24 h was more than 10 µM.
As for `C=C1CC[C@H]2[C@@](C)(CCC(=O)[C@@]2(C)COC(C)=O)[C@@H]1C/C=C1/C(=O)OC[C@@H]1Oc1cccc2cccnc12` [8b1, (14β)-(quinolyl-8′-oxy)-3-keto-19-acetoxy andrographolide], the EC50 is more than 10 µM in series [5] (Homo sapiens, AD293); 4.84 ± 0.31 µM in [7] (Homo sapiens, AD293); more than 10 µM in series [8] (Homo sapiens, AD293). The compound also gave an IC50 in the series with E. faecalis (Enterococcus faecalis) of 7.6 ± 0.8 µM. Besides, the inhibition at 250 µM was determined as 34% with E. coli and 42% in the series with S. aureus. Further, the CC50 at 24 h in series [9] is more than 10 µM.
